Laboratory results: EP4721767A1 (priority 2023, dated 2024)

Experiments:
Format in all cases: cell-based
[1] = test system: HT29 human colon cancer cells; assay: Cell killing activity of camptothecins (CCK-8); settings: HT29, killing 4 days
Experimental: (§1) KB oral epithelial cancer cells (purchased from: ATCC) were cultured in DMEM medium supplemented with 10% FBS; NCI-N87 human gastric cancer cells (purchased from: ATCC) were cultured in RPMI1640 medium supplemented with 10% FBS; HT29 human colon cancer cells (purchased from: ATCC) were cultured in RPMI1640 medium supplemented with 10% FBS; and BxPC-3 human pancreatic adenocarcinoma cells (purchased from: ATCC) were cultured in RPMI1640 medium supplemented with 10% FBS.
(§2) Using corresponding media described above and in cell plates, the density of KB cells was adjusted to 2×10^4/mL; the density of NCI-N87 cells was adjusted to 5×10^4/mL; the density of HT29 cells was adjusted to 5×10^4/mL, and the cells were plated onto 96-well transparent flat bottom plates, at 100 µL/well, and cultured overnight; and the density of BxPC-3 cells was adjusted to 5×10^4/mL.
(§3) Samples to be detected were diluted to 20 µM with corresponding media, then 5-fold gradient dilution was performed, and 9 concentrations were obtained. A well having cells but with no any sample added was set as the well showing maximum cell growth; and a well having no cells was set as the well of medium background. The diluted samples were added into the cell plates, at 100 µL/well, which were then incubated in a CO2 incubator for 96 hours. After the incubation, CCK-8 (purchased from: DOJINDO LABORATORIES) prepared beforehand was added into the plates, at 20 µL/well, and after further 3 hours of incubation in the CO2 incubator, OD values at 450 nm were read on a microplate reader.
(§4) Data obtained was fitted to a four-parameter curve using software Prism7, and equation for calculating maximum killing is: maximum killing (%) = 1 - (OD450 value of the well showing maximum killing - OD450 value of the well of medium background) / (OD450 value of the well showing maximum cell growth - OD450 value of the cell of medium background) × 100%. Table 6. Results of comparative study on the activity of camptothecins

[2] = test system: KB oral epithelial cancer cells; assay: Cell killing activity of camptothecins (CCK-8); settings: killing 4 days
Experimental: as §1, §2, §3, §4

BxPC-3 = assay: Proliferation-inhibiting effect on tumor cells (SRB / MTT); settings: Homo sapiens; BxPC-3, 144 hours; read-out: IC50 (nM, mean ± SD)
Experimental: (§5) For cells growing by adherence, SRB assay was used to detect effect of antibody-drug conjugates, antibodies, or camptothecins on the proliferation of tumor cells in vitro cultured. A certain number of cells in exponential growth phase were inoculated in 96-well cell culture plates, and when the cells grew by adherence overnight, antibody drug conjugates, antibodies, or camptothecins of different concentrations were added into the cells. 144 hours of incubation later, the cells were fixed with trichloroacetic acid, and then stained with SRB (prepared in 1% glacial acetic acid at a concentration of 4 mg/mL). 10 mM Tris solution was added into each well to solubilize the bound SRB. OD values at 510 nm were read on a microplate reader. [formula]
(§6) For cells growing in suspension, MTT assay was used to detect effect of antibody-drug conjugates, antibodies, or camptothecins on the proliferation of tumor cells in vitro cultured. A certain number of cells in exponential growth phase were inoculated in 96-well cell culture plates, and when the cells grew in suspension overnight, antibody-drug conjugates, antibodies, or camptothecins of different concentrations were added into the cells. 144 hours of incubation later, MTT was added to each well of the plates, and the incubation was continued for 4 hours at 37 °C in a 5% CO2 saturated humidity incubator. Next, 100 µL of SDS-isobutanol-HCl solution was added into each well of the plates, and OD values at 570 nm and 690 nm were read on a microplate reader.
(§7) Half maximal inhibitory concentration (IC50) was calculated from the inhibition (%) at those different concentrations using the software Graphpad Prism 8.0. The experiment was repeated once and the data was expressed as mean ± SD, and a plot of log(concentration) versus inhibition was generated. Table 10. Results of the proliferation-inhibiting effect of ADCs targeting B7-H3 on different tumor cells

Calu-3 = assay: as above; settings: Homo sapiens; Calu-3, 144 hours; read-out: IC50 (nM, mean ± SD)
Experimental: as §5, §6, §7

Calu-6 = assay: as above; settings: Homo sapiens; Calu-6, 144 hours; read-out: IC50 (nM, mean ± SD)
Experimental: as §5, §6, §7

ES-2 = assay: as above; settings: Homo sapiens; ES-2, 144 hours; read-out: IC50 (nM, mean ± SD)
Experimental: as §5, §6, §7

HCT-116 = assay: as above; settings: Homo sapiens; HCT-116, 144 hours; read-out: IC50 (nM, mean ± SD)
Experimental: as §5, §6, §7

HT-29 = assay: as above; settings: Homo sapiens; HT-29, 144 hours; read-out: IC50 (nM, mean ± SD)
Experimental: as §5, §6, §7

MC38/B7H3 = assay: as above; settings: Mus musculus, MC-38; MC38/B7H3, 144 hours; read-out: IC50 (nM, mean ± SD)
Experimental: as §5, §6, §7

MC38 = assay: as above; settings: Mus musculus, MC-38; MC38, 144 hours; read-out: IC50 (nM, mean ± SD)
Experimental: as §5, §6, §7

MDA-MB-231 = assay: as above; settings: Homo sapiens; MDA-MB-231, 144 hours; read-out: IC50 (nM, mean ± SD)
Experimental: as §5, §6, §7

MDA-MB-468 = assay: as above; settings: Homo sapiens; MDA-MB-468, 144 hours; read-out: IC50 (nM, mean ± SD)
Experimental: as §5, §6, §7

NCI-N87 = assay: as above; settings: Homo sapiens; NCI-N87, 144 hours; read-out: IC50 (nM, mean ± SD)
Experimental: as §5, §6, §7

PANC 05.04 = assay: as above; settings: Homo sapiens; PANC 05.04, 144 hours; read-out: IC50 (nM, mean ± SD)
Experimental: as §5, §6, §7

PANC-1 = assay: as above; settings: Homo sapiens; PANC-1, 144 hours; read-out: IC50 (nM, mean ± SD)
Experimental: as §5, §6, §7

SK-OV-3 = assay: as above; settings: Homo sapiens; SK-OV-3, 144 hours; read-out: IC50 (nM, mean ± SD)
Experimental: as §5, §6, §7

SW626 = assay: as above; settings: Homo sapiens; SW626, 144 hours; read-out: IC50 (nM, mean ± SD)
Experimental: as §5, §6, §7

U-87 MG = assay: as above; settings: Homo sapiens, 144 hours, read-out: IC50 (nM, mean ± SD)
Experimental: as §5, §6, §7

`CC[C@@]1(O)C(=O)OCc2c1cc1n(c2=O)Cc2c-1nc1ccc(N)c3c1c2C(F)(F)CC3` [Compound 3] was tested. Which “Maximum Killing (%)” value [1] did it give?
Its value is 90.6%.

And the EC50 ([1]; Homo sapiens, HT-29, 96 h)?
The EC50 was 6.04 nM.

And the EC50 ([2]; 96 h)?
The EC50 was 7.47 nM.

What about the “Maximum Killing (%)” value [2] of the same compound?
The value was 95.6%.

And the IC50 (BxPC-3)?
The IC50 was 0.26 ± 0.09 nM.

And the IC50 (Calu-3)?
The IC50 was 0.44 ± 0.1 nM.

What about the IC50 (Calu-6) of the same compound?
The IC50 was 0.25 ± 0.06 nM.

What about the IC50 (ES-2) of the same compound?
Its IC50 is 0.21 ± 0.08 nM.

And the IC50 (HCT-116)?
The IC50 was 0.3 nM.

What about the IC50 (HT-29) of the same compound?
Its IC50 is 0.62 nM.

What about the IC50 (MC38/B7H3) of the same compound?
Its IC50 is 4.67 ± 1.98 nM.

And the IC50 (MC38)?
The IC50 was 3.27 ± 0.75 nM.

And the IC50 (MDA-MB-231)?
The IC50 was 0.59 ± 0.03 nM.

And the IC50 (MDA-MB-468)?
Its IC50 is 0.21 ± 0.11 nM.

What about the IC50 (NCI-N87) of the same compound?
Its IC50 is 1.26 ± 0.13 nM.

And the IC50 (PANC 05.04)?
Its IC50 is 0.35 ± 0.19 nM.

What about the IC50 (PANC-1) of the same compound?
Its IC50 is 0.82 ± 0.16 nM.

And the IC50 (SK-OV-3)?
Its IC50 is 1.05 ± 0.48 nM.

And the IC50 (SW626)?
The IC50 was 3.08 ± 0.63 nM.

What about the IC50 (U-87 MG) of the same compound?
The IC50 was 3.72 ± 0.01 nM.
